Assay results as given in patent publication US20220194935A1, “PHENETHYL SUBSTITUTED IMIDAZO[4,5-C]QUINOLINE COMPOUNDS WITH AN N-1 BRANCHED GROUP” (3M INNOVATIVE PROPERTIES COMPANY, priority 2019, published 2022).

Tested on: Human peripheral blood mononuclear cells (PBMC)
Assay: Cytokine Induction in Human Cells (PBMC), minimum effective concentration
Assay type: cell-based
Conditions: 21-24 hours, lowest concentration giving at least 2× negative control, tested 0.01-30 micromolar; for MEC to Induce Cytokine, IFN-alpha: ELISA; for MEC to Induce Cytokine, IFN-gamma / MEC to Induce Cytokine, TNF-alpha: multiplex bead assay
Description: Whole blood was obtained from healthy human donors and collected by venipuncture into vacutainer tubes or syringes containing ethylene diamine tetraacetic acid (EDTA). Human peripheral blood mononuclear cells (PBMC) were purified from the whole blood by density gradient centrifugation. Histopaque 1077 (15 mL, Sigma, St. Louis, Mo.) was transferred to 6×50 mL sterile polypropylene conical tubes. The Histopaque was overlayed with 15-25 mL of blood diluted 1:2 in Hank's Balanced Salts Solution (HBSS) (Gibco, Life Technologies, Grand Island, N.Y.). The tubes were then centrifuged at 1370 revolutions per minute (rpm) for 30 minutes at 20° C., with no brake (400×g, GH 3.8A Rotor).
The interface (buffy coat) containing the PBMC was collected and placed in a new sterile 50 mL conical polypropylene centrifuge tube. The PBMC were mixed with an equal volume of HBSS (about 20 mL from the interface and about 20 mL of HBSS), and then centrifuged at 1090 rpm, 10 minutes, 20° C., with brake (270×g, GH 3.8A Rotor). After completing centrifugation, the cells were resuspended in 2-3mL ACK Red blood cell lysis buffer (ammonium chloride potassium solution, Gibco, Life Technologies) and incubated for 2-5 minutes at 20° C. Next, HBSS (40 mL) was added to the cells, and the sample was centrifuged at 270×g for 10 minutes at 20° C. The supernatant was decanted, and the cell pellet was resuspended in 5 mL AIM V Medium (Gibco, Life Technologies). Cell aggregates and debris were removed by filtering the cell solution through a BD Falcon 70 micron nylon cell strainer (BD Biosciences, San Jose, Calif.).
The number of viable cells was determined by counting with a Miltenyi FACS instrument (Miltenyi Biotec Inc., San Diego, Calif.) or by using a hemacytometer. For determining cell viability with a hemacytometer, the cells were diluted 1/10 in 0.4% trypan blue and HBSS (specifically, 50 microliter of trypan blue +40 microliter of HBSS +10 microliter of cell solution were added to a microfuge tube and mixed). Ten microliters of the diluted cells were then applied to the hemacytometer, and the number of viable PBMC were determined by microscopy.
The PBMC sample was then resuspended in 96-well plates at a concentration of 8×10^5 cells/well in 0.1 mL of AIM-V medium. Each compound was solubilized in dimethyl sulfoxide (DMSO) to create a 3 mM stock solution. The stock solution was then further diluted with AIM-V medium to prepare the serial dilutions. The diluted compound (100 microliters) was then transferred to the PBMCs to produce testing sets with final compound concentrations of 30, 10, 3.3, 1.1, 0.37, 0.12, 0.04, 0.01 micromolar. The plates also had both positive and negative controls. The negative control wells contained only AIM-V medium with no example compound. The positive control wells contained a control set of imiquimod serially diluted to concentrations of 30, 10, 3.3, 1.1, 0.37, 0.12, 0.04, 0.01 micromolar. The concentrations used in the control set were selected to match the concentrations used in the testing set. The plates were then cultured at 37° C./5% CO2 for 21-24 hours. Cell-free supernatants were harvested by centrifuging the 96-well plates at 2100 rpm, 23° C. for 10 minutes. Approximately 160 microliters of the supernatant was then stored in a NUNC 96-well plate, covered with the compression cap and stored at −80° C. until the cytokine analysis was done.
IFN-alpha cytokine levels (picograms/mL) were measured by ELISA (human IFN-alpha, pan specific, Mabtech, Cincinnati, Ohio). IFN-gamma and TNF-alpha levels (picograms/mL) were measured by multiplex bead assay (magnetic beads, R & D Systems, Minneapolis, Minn.) according to the manufacturer's instructions.
Specifically, the minimum effective concentration of each compound (micromolar) was determined as the lowest concentration of the compound that induced a measured cytokine response at a level ([…]) that was at least 2× greater than that observed with the negative control wells.

Structure (SMILES) | MEC to Induce Cytokine, IFN-alpha [µM] | MEC to Induce Cytokine, IFN-gamma [µM] | MEC to Induce Cytokine, TNF-alpha [µM]
COC[C@@H](Cc1ccccc1)n1cnc2c(N)nc3ccccc3c21 [Example 3, 1-[(1R)-1-benzyl-2-methoxy-ethyl]imidazo[4,5-c]quinolin-4-amine] | 1.1 | >30 | 1.1
CCCC[C@H](Cc1ccccc1)n1cnc2c(N)nc3ccccc3c21 [Example 2, 1-[(1R)-1-benzylpentyl]imidazo[4,5-c]quinolin-4-amine] | ≤0.01 | ≤0.01 | ≤0.01
CCOC[C@H](Cc1ccccc1)n1cnc2c(N)nc3ccccc3c21 [Example 6, 1-[(1S)-1-benzyl-2-ethoxy-ethyl]imidazo[4,5-c]quinolin-4-amine] | ≤0.01 | ≤0.01 | ≤0.01
CCCCOc1ccc(C[C@@H](CCCC)n2cnc3c(N)nc4ccccc4c32)cc1 [Example 7, 1-[(1R)-1-[(4-butoxyphenyl)methyl]pentyl]imidazo[4,5-c]quinolin-4-amine] | ≤0.01 | ≤0.01 | ≤0.01
COC[C@H](Cc1ccccc1)n1cnc2c(N)nc3ccccc3c21 [Example 5, 1-[(1S)-1-benzyl-2-methoxy-ethyl]imidazo[4,5-c]quinolin-4-amine] | ≤0.01 | ≤0.01 | ≤0.01
C[C@H](Cc1ccccc1)n1cnc2c(N)nc3ccccc3c21 [Example 1, 1-[(1R)-1-methyl-2-phenyl-ethyl]imidazo[4,5-c]quinolin-4-amine] | 0.37 | 1.1 | 0.12
Nc1nc2ccccc2c2c1ncn2CCc1ccccc1 [Comparative Example 1, 1-phenethyl-1H-imidazo[4,5-c]quinolin-4-amine, reference compound] | 1.1 | >30 | 1.1
CCOC[C@@H](Cc1ccccc1)n1cnc2c(N)nc3ccccc3c21 [Example 4, 1-[(1R)-1-benzyl-2-ethoxy-ethyl]imidazo[4,5-c]quinolin-4-amine] | 0.37 | >30 | 0.37
